Columns and labels:
[1] = system: renal cell carcinoma cell line (Caki-I); assay: Cell survival assay (MTT assay), Caki-I; assay type: cell-based, human; settings: 10 mM, 25 mM and 50 mM in MEM, 24 hours, compared with Control (p<0.05), FIG. 2
Method: The antitumor effect of rare sugars was analyzed using the three human renal cell carcinoma cell lines (ACHN, Caki-I, and Caki-II) used in Example 1. As the rare sugars, used were the following ten rare sugars: L-allulose, D-allulose, D-allose, L-fructose, D-mannose, L-sorbose, D-tagatose, D-galactose, D-sorbose, and L-tagatose, while as monosaccharides not belonging to rare sugars, D-glucose and D-fructose were used.
As a medium, a minimum essential medium (MEM) containing 1000 mg/l of D-glucose was used. By adjusting it to contain 10 mM, 25 mM, and 50 mM of each of the monosaccharides or rare sugars and using thus-obtained MEMs [shown by (10), (25), and (50) in the drawing], an antitumor effect of the rare sugars was evaluated.
A 5.0×10^4 cells/ml of each of cell suspensions was formed using MEM. The resulting suspension (0.1 ml/well) was distributed in a 96-well plate, followed by culturing for 24 hours. […]
The MTT assay is one of test methods for measuring survival and makes use of a color reaction of an insoluble formazan dye (blue) caused by the reduction of MTT which is a tetrazolium salt. […] The cell viability is determined by measuring this color reaction with a microplate reader.

[2] = system: Caki-I tumor tissue; assay: Tumor tissue histology (necrosis area, nuclear fission), Caki-I xenograft mouse model; assay type: in vivo, mice; settings: day 35
Method: The experiment of the present example used two human renal cell carcinoma cell lines (Caki-I and ACHN). Each cell was cultured under the wet environment of 37° C. and 5% CO2 by using a RPMI-1640 culture solution (2000 mg D-glucose/L) containing a 10% fetal calf serum, a HEPES buffer, and penicillin-streptomycin.
With respect to a renal cell carcinoma xenograft mouse model, a 1.0×10^5 cells/ml of a cell suspension was obtained by adjusting the cultured cells with a MEM culture solution and then 0.1 ml of the resulting suspension was injected into the femoral subcutaneous tissue of Female athymic nude mice (BALB/c-nu/nu, 6-week-old). After checking that the tumor volume was 200 mm^3 or more one week after the injection, the mice were provided for the experiment thereafter.
The day when the tumor size of the renal cell carcinoma xenograft mouse models became 200 mm^3 or more was called day 0 and the intraperitoneal injection of a D-allose-containing solution was started from day 1. The solution injected is 0.4 mL of physiological saline or a solution obtained by dissolving 100 mg/kg or 400 mg/kg of D-allose in 0.4 mL physiological saline. The resulting solution was intraperitoneally injected into three groups of mice (Control, 100 mg/kg of D-allose, and 400 mg/kg of D-allose) once a day for 5 weeks in total. The body weight of the mice and the long and short diameters of the tumor were measured over time twice a week. It is to be noted that the tumor volume was obtained as a product of long diameter×short diameter×short diameter of the tumor×0.5. On day 35 after the intraperitoneal injection was started, the tumor as well as the liver and kidney were excised from the mice and provided for the experiment performed thereafter.
The tissue of the excised tumor, kidney, and liver was fixed with a 4% paraformaldehyde phosphate buffer, embedded with paraffin, and sliced into a 4-μm thick section. The resulting sliced section was stained with hematoxylin and eosin and evaluated by a medical specialist in pathology. The influence of D-allose on the tumor tissue was evaluated by a necrosis area (%) and an image of the number of nuclear fissions (Cells/HPF). It is to be noted that the necrosis area was measured using an image recording software Nikon NIS—Elements D and figures after the decimal point were omitted. On the other hand, the number of nuclear fissions was obtained as an average of those of three fields of view and figures after the decimal point were also omitted. The anti-tumor effect of D-allose, more specifically, necrosis area and the number of nuclear fissions in the renal cell carcinoma xenograft mouse model are shown in Table 10.

[3] = 100 mg/kg intraperitoneal once a day
[4] = 400 mg/kg intraperitoneal once a day

## O=C[C@H](O)[C@H](O)[C@H](O)[C@H](O)CO [D-allose]
[1]
  Viability: significantly reduced the viability
[2]; [3]
  Necrosis area: 22%
  Nuclear fission: 0.9 Cells/HPF
[2]; [4]
  Necrosis area: 33%
  Nuclear fission: 1 Cells/HPF
